From patent US7109243B2 (IRM LLC, priority 2003, dated 2006)

What was measured:
Cathepsin S = Cathepsin S (Homo sapiens, UniProt P25774); assay: Cathepsin S inhibition assay (fluorogenic peptide substrate); assay type: biochemical; conditions: Table II, compounds of Formula I; read-out: Ki Cat. S
Outline: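 Ki values come from nonlinear fitting of inhibited hydrolysis rates, taking free and total inhibitor concentrations as equal. Rates measured as rising fluorescence at 380/450 nm after reaction start with 50 μM final acetyl-HPVK-aminocarbamoylcoumarin.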

Cathepsin K = target: T1, Cathepsin K (Homo sapiens, UniProt P43235); assay: Cathepsin K inhibition assay (fluorogenic peptide substrate); selectivity ratio vs cathepsin S; assay type: biochemical; conditions: ratio of cathepsin K inhibition constant to cathepsin S inhibition constant; Table II
T1 sequence (P43235 115-329): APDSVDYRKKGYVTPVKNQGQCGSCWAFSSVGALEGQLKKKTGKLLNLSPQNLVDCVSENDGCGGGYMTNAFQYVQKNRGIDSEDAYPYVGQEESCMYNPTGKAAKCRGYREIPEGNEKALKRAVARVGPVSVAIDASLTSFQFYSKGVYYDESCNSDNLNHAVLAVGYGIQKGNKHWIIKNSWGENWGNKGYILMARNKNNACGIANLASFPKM
Outline: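 Fluorogenic kinetic assay, started with acetyl-Lys-His-Pro-Lys-aminocarbamoylcoumarin at 40 μM final, hydrolysis followed at ex 380/em 450 nm. Apparent inhibition constants from progress curves, converted to competitive inhibition constants. Selectivity expressed as isozyme inhibition constant divided by cathepsin S inhibition constant.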

Sequence of Cathepsin S (P25774 115-331, species assumed): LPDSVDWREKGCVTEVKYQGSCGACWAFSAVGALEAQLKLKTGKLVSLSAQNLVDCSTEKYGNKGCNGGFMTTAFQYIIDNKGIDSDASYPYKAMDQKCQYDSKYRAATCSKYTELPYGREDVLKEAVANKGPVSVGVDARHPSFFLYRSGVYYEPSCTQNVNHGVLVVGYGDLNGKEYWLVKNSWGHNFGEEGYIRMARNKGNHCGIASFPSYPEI

| Ki (Cathepsin S) | Selectivity for Cat. S over Cat. K (Cathepsin K) | Compound |
| --- | --- | --- |
| < 100 nM | ++ (++, >100) | COc1ccc(NCCNC(=O)[C@H](Cc2ccc(Oc3ccc(Cl)cc3)cc2)NC(=O)c2cccc(C)c2)cc1 [Compound 300, (S)-N-{2-[4-(4-Chloro-phenoxy)-phenyl]-1-[2-(4-methoxy-phenylamino)-ethylcarbamoyl]-ethyl}-3-methyl-benzamide] |
| < 100 nM | ++ (++, >100) | COc1ccc(CC(=O)N[C@@H](CC2CCCCC2)C(=O)NCCNc2ccc(F)cc2)cc1 [Compound 301, 3-Cyclohexyl-N-[2-(4-fluoro-phenylamino)-ethyl]-2-(S)-[2-(4-methoxy-phenyl)-acetylamino]-propionamide] |
| < 100 nM | ++ (++, >100) | O=C(Cc1cccc(Cl)c1)N[C@@H](CC1CCCCC1)C(=O)NCCNc1ccc(F)cc1 [Compound 302, 2-(S)-[2-(3-Chloro-phenyl)-acetylamino]-3-cyclohexyl-N-[2-(4-fluoro-phenylamino)-ethyl]-propionamide] |
| < 100 nM | +++ (+++, >1000) | Cc1ccccc1CC(=O)N[C@@H](CC1CCCCC1)C(=O)NCCNc1ccc(F)cc1 [Compound 304, 3-Cyclohexyl-N-[2-(4-fluoro-phenylamino)-ethyl]-2-(S)-(2-o-tolyl-acetylamino)-propionamide] |
| < 100 nM | ++ (++, >100) | O=C(Cc1ccc(Cl)cc1)N[C@@H](CC1CCCCC1)C(=O)NCCNc1ccc(F)cc1 [Compound 305, 2-(S)-[2-(4-Chloro-phenyl)-acetylamino]-3-cyclohexyl-N-[2-(4-fluoro-phenylamino)-ethyl]-propionamide] |
| < 100 nM | +++ (+++, >1000) | O=C(Cc1ccccc1F)N[C@@H](CC1CCCCC1)C(=O)NCCNc1ccc(F)cc1 [Compound 306, 3-Cyclohexyl-2-(S)-[2-(2-fluoro-phenyl)-acetylamino]-N-[2-(4-fluoro-phenylamino)-ethyl]-propionamide] |
| < 100 nM | +++ (+++, >1000) | O=C(N[C@@H](CC1CCCCC1)C(=O)NCCNc1ccc(F)cc1)C(c1ccccc1)c1ccccc1 [Compound 307, 3-Cyclohexyl-2-(S)-diphenylacetylamino-N-[2-(4-fluoro-phenylamino)-ethyl]-propionamide] |
| < 100 nM | ++ (++, >100) | CC(C(=O)NC(CC1CCCCC1)C(=O)NCCNc1ccc(F)cc1)c1ccc(-c2ccccc2)c(F)c1 [Compound 308, N-(S)-{2-cyclohexyl-1-[2-(4-fluoro-phenylamino)-ethylcarbamoyl]-ethyl}-2-(2-fluoro-biphenyl-4-yl)-propionamide] |
| < 100 nM | ++ (++, >100) | Cc1ccc(C(C)C(=O)N[C@@H](CC2CCCCC2)C(=O)NCCNc2ccc(F)cc2)cc1 (stereo partly drawn) [Compound 309, N-{2-cyclohexyl-1-(S)-[2-(4-fluoro-phenylamino)-ethylcarbamoyl]-ethyl}-2-p-tolyl-propionamide] |
| < 100 nM | ++ (++, >100) | CC(C(=O)N[C@@H](CC1CCCCC1)C(=O)NCCNc1ccc(F)cc1)c1ccc(F)cc1 (stereo partly drawn) [Compound 310, N-{2-cyclohexyl-1-(S)-[2-(4-fluoro-phenylamino)-ethylcarbamoyl]-ethyl}-2-(4-fluoro-phenyl)-propionamide] |
| < 100 nM | + (+, >10) | CC(C(=O)N[C@@H](CC1CCCCC1)C(=O)NCCNc1ccc(F)cc1)c1ccc(O)cc1 (stereo partly drawn) [Compound 311, N-{2-cyclohexyl-1-(S)-[2-(4-fluoro-phenylamino)-ethylcarbamoyl]-ethyl}-2-(4-hydroxy-phenyl)-propionamide] |
| < 100 nM | ++ (++, >100) | CC(C(=O)N[C@@H](CC1CCCCC1)C(=O)NCCNc1ccc(F)cc1)c1ccc(Cl)cc1 (stereo partly drawn) [Compound 312, 2-(4-Chloro-phenyl)-N-{2-cyclohexyl-1-(S)-[2-(4-fluoro-phenylamino)-ethylcarbamoyl]-ethyl}-propionamide] |
| < 1000 nM | + (+, >10) | CS(=O)(=O)c1ccc(C(=O)N[C@@H](CC2CCCCC2)C(=O)NCCNc2ccc(F)cc2)cc1 [Compound 313, N-(S)-{2-cyclohexyl-1-[2-(4-fluoro-phenylamino)-ethylcarbamoyl]-ethyl}-4-methanesulfonyl-benzamide] |
| < 100 nM | + (+, >10) | O=C(N[C@@H](CC1CCCCC1)C(=O)NCCNc1ccc(F)cc1)c1cscn1 [Compound 314, Thiazole-4-carboxylic acid (S)-{2-cyclohexyl-1-[2-(4-fluoro-phenylamino)-ethylcarbamoyl]-ethyl}-amide] |
| < 100 nM | ++ (++, >100) | C[C@@H](C(=O)N[C@@H](CC1CCCCC1)C(=O)NCCNc1ccc(F)cc1)c1ccccc1 [Compound 315, N-{2-cyclohexyl-1-(S)-[2-(4-fluoro-phenylamino)-ethylcarbamoyl]-ethyl}-2-(R)-phenyl-propionamide] |
| < 100 nM | ++ (++, >100) | N#Cc1ccc(C(=O)N[C@@H](CC2CCCCC2)C(=O)NCCNc2ccc(F)cc2)cc1 [Compound 316, 4-Cyano-N-(S)-{2-cyclohexyl-1-[2-(4-fluoro-phenylamino)-ethylcarbamoyl]-ethyl}-benzamide] |
| < 100 nM | ++ (++, >100) | O=C(NCCNc1ccc(F)cc1)[C@H](CC1CCCCC1)NC(=O)[C@H](O)c1ccccc1 [Compound 317, 3-Cyclohexyl-N-[2-(4-fluoro-phenylamino)-ethyl]-2-(S)-(2-(R)-hydroxy-2-phenyl-acetylamino)-propionamide] |
| < 100 nM | + (+, >10) | CC[C@@H](C(=O)N[C@@H](CC1CCCCC1)C(=O)NCCNc1ccc(F)cc1)c1ccccc1 [Compound 318, N-{2-cyclohexyl-1-(S)-[2-(4-fluoro-phenylamino)-ethylcarbamoyl]-ethyl}-2-(R)-phenyl-butyramide] |
| < 100 nM | ++ (++, >100) | O=C(NCCNc1ccc(F)cc1)[C@H](CC1CCCCC1)NC(=O)C1(c2ccccc2)CC1 [Compound 319, 1-Phenyl-cyclopropanecarboxylic acid (S)-{2-cyclohexyl-1-[2-(4-fluoro-phenylamino)-ethylcarbamoyl]-ethyl}-amide] |
| < 1000 nM | ++ (++, >100) | N#Cc1cccc(C(=O)N[C@@H](CC2CCCCC2)C(=O)NCCNc2ccc(F)cc2)c1 [Compound 321, 3-Cyano-N-(S)-{2-cyclohexyl-1-[2-(4-fluoro-phenylamino)-ethylcarbamoyl]-ethyl}-benzamide] |
| < 100 nM | ++ (++, >100) | O=C(N[C@@H](CC1CCCCC1)C(=O)NCCNc1ccc(F)cc1)c1ccc(-c2ccc(F)cc2)o1 [Compound 322, 5-(4-Fluoro-phenyl)-furan-2-carboxylic acid (S)-{2-cyclohexyl-1-[2-(4-fluoro-phenylamino)-ethylcarbamoyl]-ethyl}-amide] |
| < 100 nM | ++ (++, >100) | O=C(Cc1cccc(C(F)(F)F)c1)N[C@@H](CC1CCCCC1)C(=O)NCCNc1ccc(F)cc1 [Compound 323, 3-Cyclohexyl-N-[2-(4-fluoro-phenylamino)-ethyl]-2-(S)-[2-(3-trifluoromethyl-phenyl)-acetylamino]-propionamide] |
| < 100 nM | ++ (++, >100) | N#Cc1cccc(C(=O)N[C@@H](CC2CCCCC2)C(=O)NCCNc2ccc(F)cc2)c1 [Compound 324, 3-Cyano-N-(S)-{2-cyclohexyl-1-[2-(4-fluoro-phenylamino)-ethylcarbamoyl]-ethyl}-benzamide] |
| < 100 nM | ++ (++, >100) | O=C(Cc1ccc(C(F)(F)F)cc1)N[C@@H](CC1CCCCC1)C(=O)NCCNc1ccc(F)cc1 [Compound 325, 3-Cyclohexyl-N-[2-(4-fluoro-phenylamino)-ethyl]-2-(S)-[2-(4-trifluoromethyl-phenyl)-acetylamino]-propionamide] |
| < 1000 nM | ++ (++, >100) | CS(=O)(=O)c1ccc(CC(=O)N[C@@H](CC2CCCCC2)C(=O)NCCNc2ccc(F)cc2)cc1 [Compound 326, 3-Cyclohexyl-N-[2-(4-fluoro-phenylamino)-ethyl]-2-(S)-[2-(4-methanesulfonyl-phenyl)-acetylamino]-propionamide] |
| < 1000 nM | ++ (++, >100) | COc1ccc(NCCNC(=O)[C@H](Cc2ccc(Oc3ccccc3)cc2)NC(=O)c2cccc(C)c2)cc1 [Compound 327, (S)-N-[1-[2-(4-Methoxy-phenylamino)-ethylcarbamoyl]-2-(4-phenoxy-phenyl)-ethyl]-3-methyl-benzamide] |
| < 1000 nM | ++ (++, >100) | COc1ccc(NCCNC(=O)[C@H](Cc2ccc(Oc3ccc(OC)cc3)cc2)NC(=O)c2cccc(C)c2)cc1 [Compound 328, (S)-N-{2-[4-(4-Methoxy-phenoxy)-phenyl]-1-[2-(4-methoxy-phenylamino)-ethylcarbamoyl]-ethyl}-3-methyl-benzamide] |

| Compound | Ki (Cathepsin S) | Selectivity for Cat. S over Cat. K (Cathepsin K) |
| --- | --- | --- |
| O=C(Cc1ccccc1)N[C@@H](CC1CCCCC1)C(=O)NCCNc1ccc(F)cc1 [Compound 303, 3-Cyclohexyl-N-[2-(4-fluoro-phenylamino)-ethyl]-2-(S)-phenylacetylamino-propionamide] | < 100 nM | ++ (++, >100) |
